Test results reported in patent publication US10905117B2, “Antimicrobial agent containing polyalkyleneimine derivative” (NIPPON SHOKUBAI CO., LTD, priority 2014, dated 2021).

Legend:
Format in all cases: cell-based
[1] = tested on: Staphylococcus aureus (NBRC-12732); test: Minimum growth inhibitory concentration (MIC); conditions: 0.1% by weight agent with 1% by weight NaOH, pH 12.5, stored 18 days at 55° C.
Description: (§1) An aqueous solution containing the antimicrobial agent was serially diluted by two fold with a Mueller-Hinton medium to prepare dilution series of a medium containing the antimicrobial agent. After that, the medium containing the antimicrobial agent at each concentration was added, in an amount of 50 μl each, to a 96 well polystyrene plate. […] The prepared liquid containing microbial cells was diluted to 10×10^6 cells/mL or so in a Mueller-Hinton medium, and added in an amount of 50 μl to each of the dilution series prepared in the above. […] Presence or absence of the growth of the bacterial cells was determined with a naked eye by following an increase in turbidity. To an aqueous solution added with the polymer 1 which has been obtained in Preparation Example 1 and benzalkonium chloride at 0.1% by weight, various kinds of alkali modifying agent shown in Table 8 were mixed at 1% by weight to prepare an antimicrobial agent composition. The storage stability test was carried out for the antimicrobial agent compositions for 18 days at 55° C. […] Meanwhile, MIC values were described as concentration of the antimicrobial agent.

[2] = tested on: Escherichia coli (NBRC-3972); test: Minimum growth inhibitory concentration (MIC); conditions: 0.1% by weight agent with 1% by weight NaOH, pH 12.5, stored 18 days at 55° C.
Description: as §1

[3] = tested on: Escherichia coli (NBRC-3972) and/or Staphylococcus aureus (NBRC-12732); test: MIC in the presence of an anionic surfactant; conditions: in the presence of linear alkylbenzene sulfate 80 ppm and polyoxyalkylenealkyl ether sulfate 80 ppm
Description: An aqueous solution containing the antimicrobial agent was serially diluted by two fold with a Mueller-Hinton medium to prepare dilution series of a medium containing the antimicrobial agent. After that, the medium containing the antimicrobial agent at each concentration was added, in an amount of 50 μl each, to a 96 well polystyrene plate. Next, colonies of Escherichia coli (NBRC-3972) and/or Staphylococcus aureus (NBRC-12732) which have been grown for 18 hours in a Mueller-Hinton agar medium were suspended in a Butterfield's buffer solution to prepare a liquid containing microbial cells of 10×10^8 cells/mL or so. The prepared liquid containing microbial cells was diluted to 10×10^6 cells/mL or so in a Mueller-Hinton medium, and added in an amount of 50 μl to each of the dilution series prepared in the above. […] Presence or absence of the growth of the bacterial cells was determined with a naked eye by following an increase in turbidity.
As for the anionic surfactant, linear alkylbenzene sulfate was used at 80 ppm and polyoxyalkylenealkyl ether sulfate was used at 80 ppm.

Substance: Benzalkonium chloride
- MIC Staphylococcus aureus after storage stability test [1]: 250 ppm
- MIC Escherichia coli after storage stability test [2]: 250 ppm
- MIC [3]: 625 ppm
